Measurements reported in patent US20250326744A1, “PIPERAZINE DERIVATIVE OR SALT THEREOF, AND PHARMACEUTICAL COMPOSITION” (priority 2022, published 2025).
Where a name gives a salt, the structure may show the parent alone.

Key:
[1] = system: S-3769 strain; assay: Combinational effect with antibacterial agent against Pseudomonas aeruginosa (Test Examples 2 and 4): S-3769 strain with AMK or GM at 1/4 MIC, EC99; type: cell-based; conditions: for EC99, S-3769 strain, AMK / EC99, S-3769 strain, GM: Table 52, Test Example 2, 16 to 20 hours culture, OD595; for EC99, S-3769 strain, AMK / EC99, combinational effect with AMK, S-3769 strain: combined with AMK at 1/4 MIC; for EC99, S-3769 strain, GM / EC99, combinational effect with GM, S-3769 strain: combined with GM at 1/4 MIC; for EC99, combinational effect with AMK, S-3769 strain / EC99, combinational effect with GM, S-3769 strain: Test Example 4
Method in brief: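 P. aeruginosa S-3769 (clinical isolate, MexY overexpressed) grown 16–20 h in CAMHB, 10^4 to 5 CFU/well, with AMK or GM at ¼ MIC plus test compound 0–800 μM. Growth read as OD595; EC99 is the lowest compound concentration giving ≥99% growth inhibition.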

[2] = system: mexB (PA) strain; assay: Combinational effect with antibacterial agent against Pseudomonas aeruginosa (Test Examples 2 and 4): mexB (PA) strain with LVFX, TC or AZT at 1/4 MIC, EC99; type: cell-based; conditions: for EC99, mexB (PA), AZT / EC99, mexB (PA), LVFX / EC99, mexB (PA), TC: Table 52, Test Example 2, 16 to 20 hours culture, OD595; for EC99, mexB (PA), AZT / EC99, combinational effect with AZT, mexB (PA): combined with AZT at 1/4 MIC; for EC99, mexB (PA), LVFX / EC99, combinational effect with LVFX, mexB (PA): combined with LVFX at 1/4 MIC; for EC99, mexB (PA), TC / EC99, combinational effect with TC, mexB (PA): combined with TC at 1/4 MIC; for EC99, combinational effect with AZT, mexB (PA) / EC99, combinational effect with LVFX, mexB (PA) / EC99, combinational effect with TC, mexB (PA): mexB (PA) strain, Test Example 4
Method in brief: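 P. aeruginosa mexB (PA) strain, lacking MexCD-OprJ, MexEF-OprN and MexXY and overexpressing MexAB-OprM, grown 16–20 h in CAMHB (10^4–5 CFU/well) with LVFX, TC or AZT at ¼ MIC plus test compound at 0–800 μM. Growth read as OD595; EC99 is the lowest compound concentration giving ≥99% growth inhibition.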

Structure (SMILES) | EC99, S-3769 strain, AMK [1] | EC99, S-3769 strain, GM [1] | EC99, mexB (PA), AZT [2] | EC99, mexB (PA), LVFX [2] | EC99, mexB (PA), TC [2] | EC99, combinational effect with AMK, S-3769 strain [1] | EC99, combinational effect with GM, S-3769 strain [1] | EC99, combinational effect with AZT, mexB (PA) [2] | EC99, combinational effect with LVFX, mexB (PA) [2] | EC99, combinational effect with TC, mexB (PA) [2]
CCOc1cccc(F)c1CN1CCN(C(=O)[C@H](N)C2CCN(CCc3cc(Cl)ccc3-c3ccccc3N)CC2)CC1 [Example 97, (R)-2-amino-2-(1-(2-(2′-amino-4-chloro-[1,1′-biphenyl]-2-yl)ethyl)piperidin-4-yl)-1-(4-(2-ethoxy-6-fluorobenzyl)piperazin-1-yl)ethan-1-one] | A (12.5 μM<EC99≤25 μM) | S (EC99≤12.5 μM) | S (EC99≤12.5 μM) | S (EC99≤12.5 μM) | A (12.5 μM<EC99≤25 μM) | – | – | – | – | –
CCSc1ccc(O)cc1CN1CCN(C(=O)[C@H](N)C2CCN(CCc3cc(Cl)ccc3-c3cc(O)cc(F)c3)CC2)CC1 [Example 620, (R)-2-amino-2-(1-(2-(4-chloro-3′-fluoro-5′-hydroxy-[1,1′-biphenyl]-2-yl)ethyl)piperidin-4-yl)-1-(4-(2-(ethylthio)-5-hydroxybenzyl)piperazin-1-yl)ethan-1-one] | – | – | – | – | – | S (EC99≤12.5 μM) | S (EC99≤12.5 μM) | S (EC99≤12.5 μM) | S (EC99≤12.5 μM) | S (EC99≤12.5 μM)
N[C@@H](C(=O)N1CCN(Cc2ccccc2OCC(F)(F)F)CC1)C1CCN(CCc2cc(Cl)ccc2-c2ccccc2)CC1 [Example 2, Hydrobromide of (R)-2-amino-2-(1-(2-(4-chloro-[1,1′-biphenyl]-2-yl)ethyl)piperidin-4-yl)-1-(4-(2-(2,2,2-trifluoroethoxy)benzyl)piperazin-1-yl) ethan-1-one] | S (EC99≤12.5 μM) | S (EC99≤12.5 μM) | B (25 μM<EC99≤100 μM) | C (100 μM<EC99) | B (25 μM<EC99≤100 μM) | – | – | – | – | –
CCSc1cccc(O)c1CN1CCN(C(=O)[C@H](N)C2CCN(CCc3cc(Cl)ccc3-c3ccccc3)CC2)CC1 [Example 591, Hydrochloride of (R)-2-amino-2-(1-(2-(4-chloro-[1,1-biphenyl]-2-yl)ethyl)piperidin-4-yl)-1-(4-(2-(ethylthio)-6-hydroxybenzyl)piperazin-1-yl)ethan-1-one] | – | – | – | – | – | B (25 μM<EC99≤100 μM) | B (25 μM<EC99≤100 μM) | S (EC99≤12.5 μM) | S (EC99≤12.5 μM) | S (EC99≤12.5 μM)
CCOc1cccc(F)c1CN1CCN(C(=O)[C@H](N)C2CCN(CCC3CCCc4ccccc43)CC2)CC1 (stereo partly drawn) [Example 151, Hydrobromide of (2R)-2-amino-1-(4-(2-ethoxy-6-fluorobenzyl)piperazin-1-yl)-2-(1-(2-(1,2,3,4-tetrahydronaphthalen-1-yl)ethyl)piperidin-4-yl)ethan-1-one] | B (25 μM<EC99≤100 μM) | B (25 μM<EC99≤100 μM) | C (100 μM<EC99) | C (100 μM<EC99) | C (100 μM<EC99) | – | – | – | – | –
CCOc1cccc(F)c1CN1CCN(C(=O)[C@H](N)C2CCN(CCc3cc(Cl)ccc3-c3coc4ccccc34)CC2)CC1 [Example 549, Hydrobromide of (R)-2-amino-2-(1-(2-(benzofuran-3-yl)-5-chlorophenethyl)piperidin-4-yl)-1-(4-(2-ethoxy-6-fluorobenzyl)piperazin-1-yl)ethan-1-one] | – | – | – | – | – | A (12.5 μM<EC99≤25 μM) | A (12.5 μM<EC99≤25 μM) | A (12.5 μM<EC99≤25 μM) | A (12.5 μM<EC99≤25 μM) | A (12.5 μM<EC99≤25 μM)
CSc1ccccc1CN1CCN(C(=O)[C@H](N)C2CCN(CCc3cc(Cl)ccc3-c3ccccc3O)CC2)CC1 [Example 592, Hydrochloride of (R)-2-amino-2-(1-(2-(4-chloro-2′-hydroxy-[1,1-biphenyl]-2-yl)ethyl)piperidin-4-yl)-1-(4-(2-(methylthio)benzyl)piperazin-1-yl)ethan-1-one] | – | – | – | – | – | A (12.5 μM<EC99≤25 μM) | B (25 μM<EC99≤100 μM) | S (EC99≤12.5 μM) | S (EC99≤12.5 μM) | S (EC99≤12.5 μM)
CCOc1cccc(F)c1CN1CCN(C(=O)[C@H](N)C2CCN(CCc3cc(Cl)ccc3-c3cccnc3)CC2)CC1 [Example 73, Hydrobromide of (R)-2-amino-2-(1-(5-chloro-2-(pyridin-3-yl)phenethyl)piperidin-4-yl)-1-(4-(2-ethoxy-6-fluorobenzyl)piperazin-1-yl)ethan-1-one] | S (EC99≤12.5 μM) | S (EC99≤12.5 μM) | A (12.5 μM<EC99≤25 μM) | C (100 μM<EC99) | B (25 μM<EC99≤100 μM) | – | – | – | – | –
CCOc1cccc(F)c1CN1CCN(C(=O)[C@H](N)C2CCN(CCc3cc(Cl)ccc3C3=CCCCC3)CC2)CC1 [Example 56, Hydrobromide of (R)-2-amino-2-(1-(2-(4-chloro-2′,3′,4′,5′-tetrahydro-[1,1′-biphenyl]-2-yl)ethyl)piperidin-4-yl)-1-(4-(2-ethoxy-6-fluorobenzyl)piperazin-1-yl)ethan-1-one] | A (12.5 μM<EC99≤25 μM) | A (12.5 μM<EC99≤25 μM) | B (25 μM<EC99≤100 μM) | C (100 μM<EC99) | B (25 μM<EC99≤100 μM) | – | – | – | – | –
CCOc1cccc(F)c1CN1CCN(C(=O)[C@H](N)C2CCN(CCc3c(Cl)cccc3-c3ccccc3)CC2)CC1 [Example 53, Hydrobromide of (R)-2-amino-2-(1-(2-(3-chloro-[1,1′-biphenyl]-2-yl)ethyl)piperidin-4-yl)-1-(4-(2-ethoxy-6-fluorobenzyl)piperazin-1-yl)ethan-1-one] | S (EC99≤12.5 μM) | S (EC99≤12.5 μM) | B (25 μM<EC99≤100 μM) | B (25 μM<EC99≤100 μM) | B (25 μM<EC99≤100 μM) | – | – | – | – | –
CCOc1cccc(F)c1CN1CCN(C(=O)[C@H](N)C2CCN(CCc3cc(O)ccc3-c3ccccc3)CC2)CC1 [Example 596, Hydrochloride of (R)-2-amino-1-(4-(2-ethoxy-6-fluorobenzyl)piperazin-1-yl)-2-(1-(2-(4-hydroxy-[1,1′-biphenyl]-2-yl)ethyl)piperidin-4-yl)ethan-1-one] | – | – | – | – | – | S (EC99≤12.5 μM) | A (12.5 μM<EC99≤25 μM) | C (100 μM<EC99) | B (25 μM<EC99≤100 μM) | B (25 μM<EC99≤100 μM)
CSc1ccc(O)cc1CN1CCN(C(=O)[C@H](N)C2CCN(CCc3cc(Cl)ccc3-c3ccccc3)CC2)CC1 [Example 587, Hydrochloride of (R)-2-amino-2-(1-(2-(4-chloro-[1,1-biphenyl]-2-yl)ethyl)piperidin-4-yl)-1-(4-(5-hydroxy-2-(methylthio)benzyl)piperazin-1-yl) ethan-1-one] | – | – | – | – | – | A (12.5 μM<EC99≤25 μM) | A (12.5 μM<EC99≤25 μM) | S (EC99≤12.5 μM) | S (EC99≤12.5 μM) | S (EC99≤12.5 μM)
CCOc1cccc(F)c1CN1CCN(C(=O)[C@H](N)C2CCN(CCc3cc(Cl)ccc3C3=CCCNC3)CC2)CC1 [Example 88, Hydrobromide of (R)-2-amino-2-(1-(5-chloro-2-(1,2,5,6-tetrahydropyridin-3-yl)phenethyl)piperidin-4-yl)-1-(4-(2-ethoxy-6-fluorobenzyl)piperazin-1-yl) ethan-1-one] | S (EC99≤12.5 μM) | S (EC99≤12.5 μM) | C (100 μM<EC99) | C (100 μM<EC99) | B (25 μM<EC99≤100 μM) | – | – | – | – | –
CCOc1c(Cl)ccc(F)c1CN1CCN(C(=O)[C@H](N)C2CCN(CCc3cc(Cl)ccc3-c3ccccc3)CC2)CC1 [Example 9, Hydrobromide of (R)-2-amino-1-(4-(3-chloro-2-ethoxy-6-fluorobenzyl)piperazin-1-yl)-2-(1-(2-(4-chloro-[1,1′-biphenyl]-2-yl)ethyl)piperidin-4-yl) ethan-1-one] | A (12.5 μM<EC99≤25 μM) | A (12.5 μM<EC99≤25 μM) | B (25 μM<EC99≤100 μM) | C (100 μM<EC99) | B (25 μM<EC99≤100 μM) | – | – | – | – | –
